Results on ten molecules are retold here after paper PMC9516332 (Frontiers in Oncology, 2022).

SMILES strings stand for the structures. Read-outs that look alike come from different tables or passages of the source.

Assay in all cases: Kinase panel profiling at 1 µmol/L (MSA or IMAP), percentage inhibition
What all share (format): biochemical

In assay [1] the target is panel of 255 wild-type kinases (Homo sapiens, UniProt P04626). The following applies: read-out: %-inhibition at 1 µmol/L, HER2.
Assay [2] concerns the target panel of 255 wild-type kinases (Homo sapiens, UniProt P11362). Particulars: read-out: %-inhibition at 1 µmol/L, FGFR1.
In assay [3] the target is panel of 255 wild-type kinases (Homo sapiens, UniProt P22694). The following applies: read-out: %-inhibition at 1 µmol/L, PKACβ.
Assay [4] addresses panel of 255 wild-type kinases (Homo sapiens, UniProt P29597). The following applies: read-out: %-inhibition at 1 µmol/L, TYK2.
For assay [5], the target named is T1, panel of 255 wild-type kinases (Homo sapiens, UniProt P54760).
T1 sequence (P54760 16-987): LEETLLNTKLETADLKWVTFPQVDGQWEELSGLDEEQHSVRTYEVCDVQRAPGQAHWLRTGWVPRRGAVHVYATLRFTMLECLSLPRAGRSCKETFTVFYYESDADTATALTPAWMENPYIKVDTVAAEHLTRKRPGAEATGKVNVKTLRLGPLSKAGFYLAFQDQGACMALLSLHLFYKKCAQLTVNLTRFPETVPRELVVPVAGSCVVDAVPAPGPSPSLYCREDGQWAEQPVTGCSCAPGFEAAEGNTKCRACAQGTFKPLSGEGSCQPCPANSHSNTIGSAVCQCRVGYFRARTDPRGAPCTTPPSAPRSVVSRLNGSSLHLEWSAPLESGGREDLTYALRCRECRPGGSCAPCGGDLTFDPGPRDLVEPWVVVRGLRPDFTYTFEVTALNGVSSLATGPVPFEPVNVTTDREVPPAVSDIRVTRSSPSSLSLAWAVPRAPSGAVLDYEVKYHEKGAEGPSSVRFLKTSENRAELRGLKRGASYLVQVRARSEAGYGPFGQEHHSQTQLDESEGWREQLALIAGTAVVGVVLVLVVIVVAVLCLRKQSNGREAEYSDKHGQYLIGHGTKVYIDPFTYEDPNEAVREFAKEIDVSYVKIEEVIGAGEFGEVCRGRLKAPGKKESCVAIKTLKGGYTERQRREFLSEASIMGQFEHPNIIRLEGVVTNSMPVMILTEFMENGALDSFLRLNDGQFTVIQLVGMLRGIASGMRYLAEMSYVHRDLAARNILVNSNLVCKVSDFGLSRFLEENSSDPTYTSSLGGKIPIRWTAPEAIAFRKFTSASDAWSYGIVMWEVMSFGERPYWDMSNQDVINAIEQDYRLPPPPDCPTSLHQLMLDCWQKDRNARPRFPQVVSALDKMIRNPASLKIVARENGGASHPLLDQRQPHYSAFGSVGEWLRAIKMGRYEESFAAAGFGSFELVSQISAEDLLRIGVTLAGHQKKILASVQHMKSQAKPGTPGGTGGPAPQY
The following applies: read-out: %-inhibition at 1 µmol/L, EPHB4.

The target of assay [6] is panel of 255 wild-type kinases (Homo sapiens, UniProt Q02763). Particulars: read-out: %-inhibition at 1 µmol/L, TIE2.
Assay [7] addresses panel of 255 wild-type kinases (Homo sapiens, UniProt Q16816). Particulars: read-out: %-inhibition at 1 µmol/L, PHKG1.
The target of assay [8] is T2, panel of 255 wild-type kinases (Homo sapiens, UniProt Q8IW41).
T2 sequence (Q8IW41 1-473): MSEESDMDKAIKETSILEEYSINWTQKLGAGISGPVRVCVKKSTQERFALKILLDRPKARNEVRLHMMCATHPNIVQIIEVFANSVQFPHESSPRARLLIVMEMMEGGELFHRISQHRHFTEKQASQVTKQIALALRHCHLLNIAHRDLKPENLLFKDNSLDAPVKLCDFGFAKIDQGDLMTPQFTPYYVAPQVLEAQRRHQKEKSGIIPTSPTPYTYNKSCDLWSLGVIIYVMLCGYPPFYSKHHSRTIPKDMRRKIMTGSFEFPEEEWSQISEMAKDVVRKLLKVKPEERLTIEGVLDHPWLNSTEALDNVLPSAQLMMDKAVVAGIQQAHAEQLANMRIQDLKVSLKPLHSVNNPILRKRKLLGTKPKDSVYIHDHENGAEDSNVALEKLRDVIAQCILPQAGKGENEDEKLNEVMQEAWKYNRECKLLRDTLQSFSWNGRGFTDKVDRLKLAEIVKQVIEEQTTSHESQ
The following applies: read-out: %-inhibition, MAPKAPK5.

Assay [9] concerns the target T3, panel of 255 wild-type kinases (Homo sapiens, UniProt Q9NRA0).
T3 sequence (Q9NRA0 1-654): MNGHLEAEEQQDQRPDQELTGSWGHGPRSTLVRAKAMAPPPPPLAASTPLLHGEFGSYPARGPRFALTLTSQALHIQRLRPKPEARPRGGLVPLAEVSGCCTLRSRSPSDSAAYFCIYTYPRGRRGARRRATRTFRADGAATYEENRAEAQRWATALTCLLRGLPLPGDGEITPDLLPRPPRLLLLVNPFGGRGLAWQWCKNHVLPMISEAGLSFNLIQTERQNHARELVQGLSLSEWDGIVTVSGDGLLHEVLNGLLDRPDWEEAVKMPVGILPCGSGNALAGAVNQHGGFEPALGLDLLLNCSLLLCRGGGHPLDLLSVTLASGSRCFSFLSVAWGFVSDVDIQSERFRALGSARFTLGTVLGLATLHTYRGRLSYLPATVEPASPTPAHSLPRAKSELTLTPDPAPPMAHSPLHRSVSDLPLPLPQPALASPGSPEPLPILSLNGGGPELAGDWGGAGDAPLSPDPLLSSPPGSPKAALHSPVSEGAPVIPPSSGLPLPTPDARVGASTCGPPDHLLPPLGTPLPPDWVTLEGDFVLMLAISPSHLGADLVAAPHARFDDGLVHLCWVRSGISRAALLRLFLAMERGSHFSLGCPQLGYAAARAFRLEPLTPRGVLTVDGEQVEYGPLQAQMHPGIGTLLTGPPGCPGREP
The following applies: read-out: %-inhibition at 1 µmol/L, SPHK2.

Where [10] appears, read: kinase HER2, 1 µmol/L single concentration.
Setting [11] is: kinase FGFR1, 1 µmol/L single concentration.
The mark [12] stands for this setting: kinase PKACβ, 1 µmol/L single concentration.
Setting [13] is: kinase TYK2, 1 µmol/L single concentration.
[14] abbreviates: kinase EPHB4, 1 µmol/L single concentration.
Setting [15] is: kinase TIE2, 1 µmol/L single concentration.
The mark [16] stands for this setting: kinase PHKG1, 1 µmol/L single concentration.
[17] abbreviates: MAPKAPK5, 1 µmol/L single concentration.
Setting [18] is: kinase SPHK2, 1 µmol/L single concentration.

On to `Cc1nc(NC(=O)N2CCC[C@H]2C(N)=O)sc1-c1ccnc(C(C)(C)C(F)(F)F)c1` [alpelisib], for which the inhibition at 1 µM is 19% in [1] (setting [10]); 4.29% in [2] (setting [11]); -20% in assay [3] (setting [12]); -4% in [4] (setting [13]); 3.19% in assay [5] (setting [14]); -0.712% in assay [6] (setting [15]). For the same molecule, the inhibition at 1 µM in assay [7] (setting [16]) was -1.22%; in [8] (setting [17]), -2.15%; in assay [9] (setting [18]), 6.5%.
As for `Cn1cc(-c2cc3c(N4CCN(c5ncc([C@@](C)(N)c6ccc(F)cc6)cn5)CC4)ncnn3c2)cn1` [avapritinib], the inhibition at 1 µM in assay [1] (setting [10]) was 12%; in [2] (setting [11]), 41%; in [3] (setting [12]) it was -19%; in [4] (setting [13]) it was 16%; in [5] (setting [14]) it was 34%; in assay [6] (setting [15]), 3.23%. Moreover, the inhibition at 1 µM in [7] (setting [16]) is -0.381%; in assay [8] (setting [17]), 2%; in assay [9] (setting [18]), 0.914%.
Consider `Cn1cnc2c(F)c(Nc3ccc(Br)cc3F)c(C(=O)NOCCO)cc21` [binimetinib], for which the inhibition at 1 µM in [1] (setting [10]) is 1.43%; in assay [2] (setting [11]), 2%; in assay [3] (setting [12]), -0.56%; in assay [4] (setting [13]), -4%; in assay [5] (setting [14]) it was -0.0401%; in assay [6] (setting [15]) it was 2.63%. In addition, the values for the inhibition at 1 µM in assay [7] (setting [16]), in [8] (setting [17]) and in [9] (setting [18]) were 1.77%, -4.73% and -7.55%, respectively.
On to `CNC(=O)c1ccc(-c2cnc3ncc(Cc4ccc5ncccc5c4)n3n2)cc1F` [capmatinib], for which the inhibition at 1 µM was 9% in [1]; -0.662% in [2]; -9% in [3]; 0.148% in assay [4]; -1.2% in assay [5]; -3.44% in assay [6]. Moreover, the inhibition at 1 µM was -2.39% in assay [7], -7% in assay [8] and -2% in assay [9].
As to `COc1cc2ncnc(Nc3ccc(F)c(Cl)c3)c2cc1NC(=O)/C=C/CN1CCCCC1` [dacomitinib], the inhibition at 1 µM in assay [1] (setting [10]) stood at 100%; in [2] (setting [11]), 8%; in assay [3] (setting [12]), 6%; in assay [4] (setting [13]), 6.51%; in assay [5] (setting [14]), 62%; in assay [6] (setting [15]) it was 16%. In addition, the inhibition at 1 µM in assay [7] (setting [16]) is 25%; in assay [8] (setting [17]) it was -4.47%; in assay [9] (setting [18]), 7.54%.
On to `C[C@H](Nc1ncnc2nc[nH]c12)c1cc2cccc(Cl)c2c(=O)n1-c1ccccc1` [duvelisib], for which the inhibition at 1 µM in [1] (setting [10]) is 19%; in assay [2] (setting [11]) it was -0.103%; in assay [3] (setting [12]), -16%; in [4] (setting [13]) it was 2.8%; in [5] (setting [14]), 3.24%; in assay [6] (setting [15]), -0.0949%. The inhibition at 1 µM in assay [7] (setting [16]) was -1.8%; in assay [8] (setting [17]) it was 0.859%; in assay [9] (setting [18]), 11%.
For the molecule `COC(=O)N[C@@H](C)CNc1nccc(-c2cn(C(C)C)nc2-c2cc(Cl)cc(NS(C)(=O)=O)c2F)n1` [encorafenib], the inhibition at 1 µM in [1] (setting [10]) was 4.47%; in assay [2] (setting [11]), 4.27%; in assay [3] (setting [12]), 9.51%; in assay [4] (setting [13]) it was -6%; in assay [5] (setting [14]), -0.672%; in assay [6] (setting [15]), 6%. Besides, the values for the inhibition at 1 µM in assay [7] (setting [16]), in assay [8] (setting [17]) and in assay [9] (setting [18]) were 3%, -4% and -12%, respectively.
Regarding `CN1CCN(c2ccc(C(=O)Nc3n[nH]c4ccc(Cc5cc(F)cc(F)c5)cc34)c(NC3CCOCC3)c2)CC1` [entrectinib], the inhibition at 1 µM in [1] (setting [10]) is 22%; in [2] (setting [11]) it was 90%; in assay [3] (setting [12]) it was -21%; in assay [4] (setting [13]), 95%; in assay [5] (setting [14]) it was 73%; in [6] (setting [15]), 72%. The inhibition at 1 µM was found to be 54% in assay [7] (setting [16]), 0.65% in assay [8] (setting [17]) and 20% in [9] (setting [18]).
For `CCc1nc(C(N)=O)c(Nc2ccc(N3CCC(N4CCN(C)CC4)CC3)c(OC)c2)nc1NC1CCOCC1` [gilteritinib], the inhibition at 1 µM in [1] (setting [10]) was 15%; in [2] (setting [11]), 55%; in assay [3] (setting [12]), 22%; in [4] (setting [13]), 70%; in assay [5] (setting [14]), 74%; in assay [6] (setting [15]) it was 41%. Also, the results for the inhibition at 1 µM in [7] (setting [16]), in [8] (setting [17]) and in [9] (setting [18]) were 92%, -0.923% and 9%, respectively.
As to `CCN1C(=O)N(c2c(F)c(OC)cc(OC)c2F)Cc2cnc3[nH]c(CN4CCOCC4)cc3c21` [pemigatinib], the inhibition at 1 µM in assay [1] (setting [10]) was -4%; in assay [3] (setting [12]), -7%; in [4] (setting [13]) it was -6.39%; in assay [5] (setting [14]) it was -3%; in assay [6] (setting [15]), 28%; in [7] (setting [16]), 6%. For the same molecule, the inhibition at 1 µM was 2.28% in [8] (setting [17]) and -5.31% in assay [9] (setting [18]).
